{
  "source": "patent US20180250284A1",
  "about": "“QUINOLINE DERIVATIVES FOR USE IN TREATING LEUKODYSTROPHY AND TREATMENT METHOD” (GEORG-AUGUST-UNIVERSITÄT GÖTTINGEN STIFTUNG ÖFFENTLICHEN …, priority 2015, published 2018)",
  "key": {"EAE model": {"test_system": "EAE model", "details": "cited from earlier work"}, "[1]": {"test_system": "Knockout mice (Cnp-Pex5, Cnp1-Cre*PEX5flox/flox, Pex5^flox/flox*Cnp-Cre/+, Nestin-Pex5, NEX-Pex5, GFAP-Pex5^−/−)", "assay": "effect of various doses of laquinimod on Pex5 knockout mice", "format": "in vivo", "method": "Knockout mice of one or more of the following strains are used: Cnp-Pex5, Cnp1-Cre*PEX5flox/flox, Pex5^flox/flox*Cnp-Cre/+, Nestin-Pex5, NEX-Pex5, and GFAP-Pex5^−/−.\nThe effect of various doses of laquinimod on knockout mice is assessed."}, "[2]": {"test_system": "Cnp-Cre Pex5^fl/fl Rag1^−/− mice", "assay": "balanced beam test (motor coordination / walking ability)", "format": "in vivo", "details": "25 mg/kg oral gavage 6 out 7 days/week from age 6 weeks to month 6; vs H2O treated controls; significant from the age of 4 months", "method": "Cnp-Cre Pex5^fl/fl Rag1^−/− mice received either H2O (Ctrl, n=18) or laquinimod (25 mg/kg, n=11) at 6 out 7 days/week by oral gavage. Treatment was initiated at the age of 6 weeks. Unpaired t test, **<0.01; ***<0.001. Cnp-Cre Pex5^fl/fl Rag1^−/− mice were generated by crossbreeding of Cnp-Cre Pex5^fl/fl mice with Rag1^−/− mice. Mice of both sexes received 25 mg/kg Laquinimod or water by oral gavage 6 out 7 days/week and treatment was initiated at the age of 6 weeks. Motor coordination was assessed with a balanced beam test. Mice were put on a beam (width 1.5 cm) and allowed to run toward a hiding box. After a training period, the time to pass a distance of 0.6 m was measured (three repeats per time point)."}, "[3]": {"test_system": "Cnp-Cre Pex5^fl/fl Rag1^−/− mice", "assay": "histological and morphological analyses of the corpus callosum at month 6", "format": "in vivo", "details": "25 mg/kg oral; for extent of demyelination / myelin loss in the corpus callosum: luxol fast blue, vs vehicle/water treated mice", "method": "FIG. 2: Quantification of axonal damage (APP), microglia/macrophage cell numbers (Mac3), demyelination and adult oligodendrocytes (NogoA) in the corpus callosum (CC) of CNP-Cre Pex^fl/fl RAG1^−/− mice at the age of 6 months. Cnp-Cre Pex5^fl/fl Rag1^−/− mice were generated by crossbreeding of Cnp-Cre Pex5^fl/fl mice with Rag1^−/− mice. Mice of both sexes received 25 mg/kg Laquinimod or water by oral gavage 6 out 7 days/week and treatment was initiated at the age of 6 weeks. Mice were perfused transcardially at month 6 with cold PBS followed by 4% paraformaldehyde (PFA). Brains and spinal cords were post-fixed for 2 days and then paraffin-embedded. Sections between 0.5-1 μm were cut and processed for immunohistochemistry (IHC) according to standard protocols. Demyelination was evaluated on sections stained with luxol fast blue (LFB). For the staining of macrophages the antibody MAC387 (mouse anti-L1 antibody MAC387, GeneTex, 1:150) was used. Axonal density was evaluated on Bielschowsky silver stained sections. That is, in order to identify the mechanisms how laquinimod is beneficial in the CNP-Cre Pex^fl/fl RAG1^−/− mouse model, we analyzed and quantified the extent of demyelination, axonal damage and macrophage and adult oligodendrocyte numbers in immunohistochemically stained sections of the corpus callosum at month 6 in laquinimod and vehicle treated mice. […] The extent of demyelination was diminished and the numbers of preserved adult oligodendrocytes were increased, see FIG. 2."}, "[4]": {"details": "in vivo; cited from earlier work"}, "[5]": {"test_system": "Patients with leukodystrophy", "assay": "trial of laquinimod in leukodystrophy human patients", "format": "in vivo", "details": "capsules orally once daily", "method": "A trial is conducted to evaluate the safety, tolerability and clinical effect of laquinimod in leukodystrophy human patients. Patients with leukodystrophy are enrolled. The patient has been affirmatively diagnosed to have leukodystrophy. […] Capsule(s) containing laquinimod and/or matching placebo are administered orally once daily at dosages approved by the study Safety Committee. Patients are randomized into one of the treatment arms in a ratio that allows for reaching an overall target enrollment."}, "cuprizone model": {"test_system": "cuprizone model", "details": "cited from earlier work"}, "[6]": {"test_system": "multiple sclerosis (MS) patients", "details": "two phase III trials; cited from earlier work"}, "[7]": {"test_system": "microglia cells stimulated with 1 μg/ml LPS and 5 mM ATP", "assay": "IL1β ELISA of supernatants of LPS/ATP stimulated microglia cells", "format": "cell-based", "details": "at high concentrations of laquinimod", "method": "FIG. 3: Titration of laquinimod to microglia cells stimulated with 1 μg/ml LPS and 5 mM ATP. Microglia cell supernatants were analyzed for IL1β by ELISA."}, "Patients with PBD": {"test_system": "Patients with PBD", "assay": "trial of laquinimod for PBD in human patients", "format": "in vivo", "method": "A trial is conducted to evaluate the safety, tolerability and clinical effect of laquinimod for PBD in human patients. Patients with PBD are enrolled. The patient has been affirmatively diagnosed to have PBD. […] Capsule(s) containing laquinimod and/or matching placebo are administered orally once daily at dosages approved by the study Safety Committee. Patients are randomized into one of the treatment arms in a ratio that allows for reaching an overall target enrollment."}, "[8]": {"details": "age of 6 months, vs vehicle treated mice"}, "[9]": {"details": "capsules orally once daily, human patients"}},
  "data": [
    {"smiles": "CCN(C(=O)c1c(O)c2c(Cl)cccc2n(C)c1=O)c1ccccc1", "note": "[laquinimod, 5-chloro-N-ethyl-4-hydroxy-1-methyl-2-oxo-N-phenyl-1,2-dihydroquinoline-3-carboxamide]", "values": [
      {"measurement": "axonal injury", "setting": "EAE model", "result": "reduces"},
      {"measurement": "microglia and astrocyte activation", "setting": "EAE model", "result": "inhibits"},
      {"measurement": "accumulation of lipid droplets and VLCFA, depletion of plasmalogens, impairment of myelin, axonal degeneration, astrogliosis, and/or microgliosis", "setting": "[1]", "result": "reduces"},
      {"measurement": "cognitive function", "setting": "[1]", "result": "improves"},
      {"measurement": "hindlimb ataxia, kyphosis, hindlimb paresis, forelimb ataxia, tremor, hindlimb paralysis, and/or passiveness", "setting": "[1]", "result": "reduces"},
      {"measurement": "motor function", "setting": "[1]", "result": "improves"},
      {"measurement": "walking ability / motor coordination on elevated beam test", "setting": "[2]", "result": "significantly better"},
      {"measurement": "extent of demyelination / myelin loss in the corpus callosum", "setting": "[3]; age of 6 months", "result": "less extensive"},
      {"measurement": "extent of demyelination / myelin loss in the corpus callosum", "setting": "[3]; age of 6 months, listed as Laquinimod", "result": "diminished"},
      {"measurement": "axonal damage (APP positive axons) in the corpus callosum", "setting": "[3]; [8]", "result": "significantly reduced"},
      {"measurement": "microglia/macrophage cell numbers (Mac3) in the corpus callosum", "setting": "[3]; [8]", "result": "significantly reduced"},
      {"measurement": "numbers of preserved adult oligodendrocytes (NogoA) in the corpus callosum", "setting": "[3]; [8]", "result": "increased"},
      {"measurement": "microglia activation", "setting": "[3]; vs water treated controls", "result": "reduced"},
      {"measurement": "preservation of axons (axonal loss)", "setting": "[3]; vs water treated controls", "result": "better preserved"},
      {"measurement": "microglia activation", "setting": "[3]; vs water treated controls, listed as Laquinimod", "result": "less abundant"},
      {"measurement": "oral bioavailability", "setting": "[4]", "result": "high"},
      {"measurement": "motor symptoms of leukodystrophy", "setting": "[5]", "result": "alleviates or eliminates"},
      {"measurement": "one or more symptoms of leukodystrophy", "setting": "[5]", "result": "alleviates or eliminates"},
      {"measurement": "demyelination", "setting": "cuprizone model", "result": "reduces"},
      {"measurement": "microglia and astrocyte activation", "setting": "cuprizone model", "result": "inhibits"},
      {"measurement": "safety and tolerability profile", "setting": "[6]", "result": "favorable"},
      {"measurement": "amount of IL1β in LPS stimulated microglia cell cultures", "setting": "[7]", "result": "significantly reduced"},
      {"measurement": "motor symptoms of PBD", "setting": "Patients with PBD; [9]", "result": "alleviates or eliminates"},
      {"measurement": "one or more symptoms of PBD", "setting": "Patients with PBD; [9]", "result": "alleviates or eliminates"},
      {"measurement": "symptoms of Zellweger Syndrome (ZS)", "setting": "Patients with PBD; humans, Example 3.1", "result": "alleviates or eliminates"},
      {"measurement": "symptoms of Neonatal Adrenoleukodystrophy (NALD)", "setting": "Patients with PBD; humans, Example 3.2", "result": "alleviates or eliminates"},
      {"measurement": "symptoms of Infantile Refsum Disease (IRD)", "setting": "Patients with PBD; humans, Example 3.3", "result": "alleviates or eliminates"}
    ]}
  ]
}
